From patent US20260248787A9, “MEDICAMENT FOR TREATING CANCER COMPRISING OPTICALLY ACTIVE AZABICYCLO RING DERIVATIVE” (Sumitomo Pharma Co., Ltd., priority 2023, published 2026)

Experiment: Phase 1/2 first-in-human clinical study, safety evaluation (DLT, TEAE, SAE)
Description: Arm A: Patients without azole antifungal treatment within 7 days (or 21 days for isavuconazole) of first dose of the present compound
Arm B: Patients receiving posaconazole, voriconazole, or fluconazole antifungal prophylaxis at enrollment
The safety of each dose level also was evaluated by the SRC, which was comprised of all investigators participating in the study and selected Sponsor study team members. The dose recommended by the BLRM method was treated as guidance and was integrated with a clinical assessment of toxicity information and review of other available data, including safety, PK, pharmacodynamic, and laboratory data.
When the Dose Limiting Toxicity (DLT) evaluation for each cohort was completed, the SRC determined a next dose level based on the DLT and other available data, including safety, PK, pharmacodynamic, and laboratory data with reference to the Bayesian Logistic Regression Model (BLRM) recommendation.
Dose escalation decisions were made after all patients in a dose level cohort have at least completed Cycle 1. All available data were presented along with the BLRM predictions for toxicity probabilities at the potential next dose levels. The SRC then determined the dose(s) for the next cohort(s).

Q: What does the source list for `C=C1C[C@@H]2CC[C@H]1[C@@H](C(=O)N1CCC3(CC1)CN(c1ncncc1Oc1ccc(F)cc1C(=O)N(C(C)C)C(C)C)C3)N2` [the present compound, 5-fluoro-2-[(4-{7-[(1S,3S,4R)-5-methylidene-2-azabicyclo[2.2.2]octane-3-carbonyl]-2,7-diazaspiro[3.5]nonan-2-yl}pyrimidin-5-yl)oxy]-N,N-di(propan-2-yl)benzamide]?
A: TEAE: Disease progression (Arm B N=10, ≥Grade 3): 2 (20.0) n (%); TEAE: Dyspnoea (Arm B N=10, ≥Grade 3): 0 n (%); TEAE: Epistaxis (Arm B N=10, ≥Grade 3): 0 n (%); TEAE: Fatigue (Arm B N=10, ≥Grade 3): 0 n (%); TEAE: Gastrointestinal disorders (Arm B N=10, ≥Grade 3): 0 n (%); TEAE: General disorders and administration site disorders (Arm B N=10, ≥Grade 3): 2 (20.0) n (%); TEAE: Headache (Arm B N=10, ≥Grade 3): 0 n (%); TEAE: Hemorrhoids (Arm B N=10, ≥Grade 3): 0 n (%); TEAE: Hypertriglyceridaemia (Arm B N=10, ≥Grade 3): 1 (10.0) n (%); TEAE: Hypoalbuminaemia (Arm B N=10, ≥Grade 3): 0 n (%); TEAE: Hypocalcaemia (Arm B N=10, ≥Grade 3): 1 (10.0) n (%); TEAE: Hypomagnaesemia (Arm B N=10, ≥Grade 3): 0 n (%); TEAE: Hyponatraemia (Arm B N=10, ≥Grade 3): 0 n (%); TEAE: Infections and Infestations (Arm B N=10, ≥Grade 3): 4 (40.0) n (%); TEAE: Investigations (Arm B N=10, ≥Grade 3): 1 (10.0) n (%); TEAE: Metabolism and nutrition disorders (Arm B N=10, ≥Grade 3): 4 (40.0) n (%); TEAE: Musculoskeletal and connective tissue disorders (Arm B N=10, ≥Grade 3): 1 (10.0) n (%); TEAE: Nausea (Arm B N=10, ≥Grade 3): 0 n (%); TEAE: Nervous System Disorders (Arm B N=10, ≥Grade 3): 0 n (%); TEAE: Oedema peripheral (Arm B N=10, ≥Grade 3): 0 n (%); TEAE: Pain in extremity (Arm B N=10, ≥Grade 3): 0 n (%); TEAE: Platelet count decreased (Arm B N=10, ≥Grade 3): 0 n (%); TEAE: Pneumonia (Arm B N=10, ≥Grade 3): 2 (20.0) n (%); TEAE: Pruritus (Arm B N=10, ≥Grade 3): 0 n (%); TEAE: Pyrexia (Arm B N=10, ≥Grade 3): 0 n (%); TEAE: Respiratory, thoracic and mediastinal disorders (Arm B N=10, ≥Grade 3): 0 n (%); TEAE: Sepsis (Arm B N=10, ≥Grade 3): 2 (20.0) n (%); TEAE: Skin and subcutaneous tissue disorders (Arm B N=10, ≥Grade 3): 0 n (%); TEAE: Stomatitis (Arm B N=10, ≥Grade 3): 0 n (%); TEAE: Vomiting (Arm B N=10, ≥Grade 3): 0 n (%); related TEAE: Aspartate aminotransferase increased (Arm B N=10, ≥Grade 3): 1 (10.0) n (%); related TEAE: Blood and lymphatic system disorders (Arm B N=10, ≥Grade 3): 1 (10.0) n (%); related TEAE: Decreased appetite (Arm B N=10, ≥Grade 3): 0 n (%); related TEAE: Differentiation syndrome (Arm B N=10, ≥Grade 3): 0 n (%); related TEAE: Gastrointestinal disorders (Arm B N=10, ≥Grade 3): 0 n (%); related TEAE: General disorders and administration site conditions (Arm B N=10, ≥Grade 3): 0 n (%); related TEAE: Headache (Arm B N=10, ≥Grade 3): 0 n (%); related TEAE: Hypertriglyceridaemia (Arm B N=10, ≥Grade 3): 1 (10.0) n (%); related TEAE: Hyperuricaemia (Arm B N=10, ≥Grade 3): 0 n (%); related TEAE: Increased appetite (Arm B N=10, ≥Grade 3): 0 n (%); related TEAE: Investigations (Arm B N=10, ≥Grade 3): 1 (10.0) n (%); related TEAE: Leukocytosis (Arm B N=10, ≥Grade 3): 1 (10.0) n (%); related TEAE: Metabolism and nutrition disorders (Arm B N=10, ≥Grade 3): 1 (10.0) n (%); related TEAE: Nausea (Arm B N=10, ≥Grade 3): 0 n (%); related TEAE: Neoplasms benign, malignant and unspecified (incl cysts and polyps) (Arm B N=10, ≥Grade 3): 0 n (%); related TEAE: Nervous system disorders (Arm B N=10, ≥Grade 3): 0 n (%); related TEAE: Thirst (Arm B N=10, ≥Grade 3): 0 n (%); related TEAE: Vomiting (Arm B N=10, ≥Grade 3): 0 n (%); TEAE: Hypokalaemia (Arm B N=10, ≥Grade 3 (not related to the present compound)): 3 (30.0)*^3 n (%); Hematological TEAE regardless of causality: Anaemia (N=57, Any Grade): 9 (15.8%) n (%); Hematological TEAE regardless of causality: Febrile neutropenia (N=57, Any Grade): 12 (21.1%) n (%); Hematological TEAE regardless of causality: Leukocytosis (N=57, Any Grade): 10 (17.5%) n (%); Hematological TEAE regardless of causality: Neutrophil count decreased (N=57, Any Grade): 7 (12.3%) n (%); Hematological TEAE regardless of causality: Platelet count decreased (N=57, Any Grade): 9 (15.8%) n (%); Non-hematological TEAE regardless of causality: Arthralgia (N=57, Any Grade): 6 (10.5%) n (%); Non-hematological TEAE regardless of causality: Back pain (N=57, Any Grade): 8 (14.0%) n (%); Non-hematological TEAE regardless of causality: COVID-19 (N=57, Any Grade): 6 (10.5%) n (%); Non-hematological TEAE regardless of causality: Constipation (N=57, Any Grade): 11 (19.3%) n (%); Non-hematological TEAE regardless of causality: Cough (N=57, Any Grade): 7 (12.3%) n (%); Non-hematological TEAE regardless of causality: Decreased appetite (N=57, Any Grade): 15 (26.3%) n (%); Non-hematological TEAE regardless of causality: Diarrhoea (N=57, Any Grade): 10 (17.5%) n (%); Non-hematological TEAE regardless of causality: Dizziness (N=57, Any Grade): 8 (14.0%) n (%); Non-hematological TEAE regardless of causality: Dysgeusia (N=57, Any Grade): 6 (10.5%) n (%); Non-hematological TEAE regardless of causality: Dyspnoea (N=57, Any Grade): 13 (22.8%) n (%); Non-hematological TEAE regardless of causality: Electrocardiogram QT prolonged (N=57, Any Grade): 7 (12.3%) n (%); Non-hematological TEAE regardless of causality: Epistaxis (N=57, Any Grade): 10 (17.5%) n (%); Non-hematological TEAE regardless of causality: Fatigue (N=57, Any Grade): 10 (17.5%) n (%); Non-hematological TEAE regardless of causality: Haemorrhage intracranial (N=57, Any Grade): 6 (10.5%) n (%); Non-hematological TEAE regardless of causality: Headache (N=57, Any Grade): 15 (26.3%) n (%); Non-hematological TEAE regardless of causality: Hypertension (N=57, Any Grade): 8 (14.0%) n (%); Non-hematological TEAE regardless of causality: Hypotension (N=57, Any Grade): 7 (12.3%) n (%); Non-hematological TEAE regardless of causality: Muscular weakness (N=57, Any Grade): 9 (15.8%) n (%); Non-hematological TEAE regardless of causality: Myalgia (N=57, Any Grade): 6 (10.5%) n (%); Non-hematological TEAE regardless of causality: Nausea (N=57, Any Grade): 23 (40.4%) n (%); Non-hematological TEAE regardless of causality: Oedema peripheral (N=57, Any Grade): 9 (15.8%) n (%); Non-hematological TEAE regardless of causality: Pain in extremity (N=57, Any Grade): 8 (14.0%) n (%); Non-hematological TEAE regardless of causality: Pneumonia (N=57, Any Grade): 10 (17.5%) n (%); Non-hematological TEAE regardless of causality: Pyrexia (N=57, Any Grade): 9 (15.8%) n (%); Non-hematological TEAE regardless of causality: Sepsis (N=57, Any Grade): 11 (19.3%) n (%); Non-hematological TEAE regardless of causality: Stomatitis (N=57, Any Grade): 11 (19.3%) n (%); Non-hematological TEAE regardless of causality: Vomiting (N=57, Any Grade): 20 (35.1%) n (%); Non-hematological laboratory change regardless of causality: ALT increase (N=57, Any Grade): 28 (49.1%) n (%); Non-hematological laboratory change regardless of causality: AST increase (N=57, Any Grade): 23 (40.4%) n (%); Non-hematological laboratory change regardless of causality: Hypertriglyceridemia (N=57, Any Grade): 45 (7.9%) n (%); Non-hematological laboratory change regardless of causality: Hypocalcemia (N=57, Any Grade): 33 (57.9%) n (%); Non-hematological laboratory change regardless of causality: Hypokalemia (N=57, Any Grade): 34 (7.0%) n (%); Non-hematological laboratory change regardless of causality: Hypomagnesemia (N=57, Any Grade): 26 (4.6%) n (%); Non-hematological laboratory change regardless of causality: Hyponatremia (N=57, Any Grade): 32 (56.1%) n (%); Non-hematological laboratory change regardless of causality: Hypophosphatemia (N=57, Any Grade): 19 (33.3%) n (%); Treatment related adverse event: Nausea (N=57, Any Grade): 10 (17.5%) n (%); Treatment related adverse event: Vomiting (N=57, Any Grade): 7 (12.3%) n (%); Hematological TEAE regardless of causality: Anaemia (N=57, Grade ≥3): 8 (14.0%) n (%); Hematological TEAE regardless of causality: Febrile neutropenia (N=57, Grade ≥3): 12 (21.1%) n (%); Hematological TEAE regardless of causality: Leukocytosis (N=57, Grade ≥3): 4 (7.0%) n (%); Hematological TEAE regardless of causality: Neutrophil count decreased (N=57, Grade ≥3): 6 (10.5%) n (%); Hematological TEAE regardless of causality: Platelet count decreased (N=57, Grade ≥3): 8 (14.0%) n (%); Non-hematological TEAE regardless of causality: Arthralgia (N=57, Grade ≥3): 1 (1.8%) n (%); Non-hematological TEAE regardless of causality: Back pain (N=57, Grade ≥3): 1 (1.8%) n (%)
